Measured values as given in ChEMBL document CHEMBL4622875, “(3,3″)-Linked Biflavanones from Ouratea spectabilis and Their Effects on the Release of Proinflammatory Cytokines in THP-1 Cells” (J Nat Prod, 2020).
Calls of active or inactive are those of the source. No cut-off for these calls is given here.

Legend:
[1] = Cytotoxicity against human THP1 cells assessed as cell viability at 10 to 90 uM incubated for 18 hrs by sulforhodamine B assay relative to control; type: cell-based; settings: THP-1 cells, read-out: Activity
THP-1 [2] = experiment: Antiinflammatory activity in human THP1 cells assessed as reduction in LPS-induced IL-1beta secretion at 10 to 90 uM preincubated for 3 hrs followed by LPS stimulation and measured after 18 hrs by ELISA; type: functional, cell-based
THP-1 [3] = experiment: Antiinflammatory activity in human THP1 cells assessed as reduction in LPS-induced TNF secretion at 10 to 90 uM preincubated for 3 hrs followed by LPS stimulation and measured after 18 hrs by ELISA; type: functional, cell-based
THP-1 [4] = experiment: Antiinflammatory activity in human THP1 cells assessed as reduction in LPS-induced CCL2 secretion preincubated for 3 hrs followed by LPS stimulation and measured after 18 hrs by ELISA; type: functional, cell-based

IC50 (THP-1 [4]) [µM]	Structure (SMILES)	viability at 18 h, up to 90 µM [1] [%]	Activity (THP-1 [2])	Activity (THP-1 [3])
–	COc1cc(O)c2c(c1)O[C@H](c1ccc(O)cc1)[C@H]([C@@H]1C(=O)c3c(O)cc(OC)cc3O[C@@H]1c1ccc(O)cc1)C2=O	> 90	inactive	inactive
–	COc1cc(O)c2c(c1)O[C@H](c1ccc(O)cc1)[C@@H]([C@H]1C(=O)c3c(O)cc(O)cc3O[C@@H]1c1ccc(O)cc1)C2=O	> 90	inactive	inactive
3.1	COc1cc(O)c2c(c1)O[C@H](c1ccc(O)cc1)[C@@H]([C@H]1C(=O)c3c(O)cc(OC)cc3O[C@@H]1c1ccc(O)cc1)C2=O	> 90	inactive	inactive
–	O=C1c2c(O)cc(O)cc2O[C@H](c2ccc(O)cc2)[C@@H]1[C@@H]1C(=O)c2c(O)cc(O)cc2O[C@@H]1c1ccc(O)cc1 [NEOCHAMAEJASMIN A]	> 90	inactive	inactive
